Assay results taken from PubChem BioAssay AID2060507 (Molecular Pharmacology Branch, DTP, NCI, 2025).
Values belong to the compound of their own block, whether it stands above or below them.

System: 519858-162-T-J1-PDC complex spheroid viability
Test: Anticancer human tumor 519858-162-T-J1-PDC patient-derived colon adenocarcinoma cell line growth inhibition [GQUAD]
Conditions: for IC50: curve of first compound; for viability, T/C: stronger effect = lower value
Method in brief: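 Tumor cells were grown as complex spheroids with HUVEC endothelial cells and mesenchymal stem cells as stroma. G-quadruplex stabilizers were combined with targeted agents over half-log dilutions from near the clinical Cmax, or from 10 microM.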

[1] = second compound 0.0316 µM, first compound 0.0316 µM
[2] = second compound 0.0316 µM, first compound 0.1 µM
[3] = second compound 0.0316 µM, first compound 0.316 µM
[4] = second compound 0.0316 µM, first compound 1 µM
[5] = second compound 0.0316 µM, first compound 3.16 µM
[6] = second compound 0.0316 µM, first compound 10 µM
[7] = second compound 0.1 µM, first compound 0.0316 µM
[8] = second compound 0.1 µM, first compound 0.1 µM
[9] = second compound 0.1 µM, first compound 0.316 µM
[10] = second compound 0.1 µM, first compound 1 µM
[11] = second compound 0.1 µM, first compound 3.16 µM
[12] = second compound 0.1 µM, first compound 10 µM
[13] = second compound 0.316 µM, first compound 0.0316 µM
[14] = second compound 0.316 µM, first compound 0.1 µM
[15] = second compound 0.316 µM, first compound 0.316 µM
[16] = second compound 0.316 µM, first compound 1 µM
[17] = second compound 0.316 µM, first compound 3.16 µM
[18] = second compound 0.316 µM, first compound 10 µM
[19] = second compound 1 µM, first compound 0.0316 µM
[20] = second compound 1 µM, first compound 0.1 µM
[21] = second compound 1 µM, first compound 0.316 µM
[22] = second compound 1 µM, first compound 1 µM
[23] = second compound 1 µM, first compound 3.16 µM
[24] = second compound 1 µM, first compound 10 µM
[25] = second compound 3.16 µM, first compound 0.0316 µM
[26] = second compound 3.16 µM, first compound 0.1 µM
[27] = second compound 3.16 µM, first compound 0.316 µM
[28] = second compound 3.16 µM, first compound 1 µM
[29] = second compound 3.16 µM, first compound 3.16 µM
[30] = second compound 3.16 µM, first compound 10 µM
[31] = second compound 10 µM, first compound 0.0316 µM
[32] = second compound 10 µM, first compound 0.1 µM
[33] = second compound 10 µM, first compound 0.316 µM
[34] = second compound 10 µM, first compound 1 µM
[35] = second compound 10 µM, first compound 3.16 µM
[36] = second compound 10 µM, first compound 10 µM
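Note: spheroids exposed to compounds for 7 days.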
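Throughout, for viability, T/C: 100% = DMSO vehicle control viability.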

SMILES: COc1cc(C2c3cc4c(cc3C(OC3OC5COC(C)OC5C(O)C3O)C3COC(=O)C23)OCO4)cc(OC)c1O (stereo unspecified) + CN(C)c1ccc(Nc2c3ccc(NC(=O)CCN4CCCC4)cc3nc3cc(NC(=O)CCN4CCCC4)ccc23)cc1
IC50 (second compound 0.0316 µM): > 10 µM
IC50 (second compound 0.1 µM): > 10 µM
IC50 (second compound 0.316 µM): > 10 µM
IC50 (second compound 1 µM): > 10 µM
IC50 (second compound 3.16 µM): > 10 µM
IC50 (second compound 10 µM): > 10 µM
viability, T/C [1]: 87.2%
viability, T/C [2]: 80.1%
viability, T/C [3]: 83.5%
viability, T/C [4]: 69.2%
viability, T/C [5]: 80.7%
viability, T/C [6]: 103%
viability, T/C [7]: 68.6%
viability, T/C [8]: 81.8%
viability, T/C [9]: 79.6%
viability, T/C [10]: 94.3%
viability, T/C [11]: 60.8%
viability, T/C [12]: 84%
viability, T/C [13]: 93.5%
viability, T/C [14]: 95.8%
viability, T/C [15]: 80.5%
viability, T/C [16]: 61.8%
viability, T/C [17]: 77%
viability, T/C [18]: 62.7%
viability, T/C [19]: 85.4%
viability, T/C [20]: 65.2%
viability, T/C [21]: 64.9%
viability, T/C [22]: 65.9%
viability, T/C [23]: 77%
viability, T/C [24]: 80.3%
viability, T/C [25]: 59.8%
viability, T/C [26]: 76.2%
viability, T/C [27]: 65.3%
viability, T/C [28]: 74.1%
viability, T/C [29]: 101%
viability, T/C [30]: 67.6%
viability, T/C [31]: 55.6%
viability, T/C [32]: 69.2%
viability, T/C [33]: 73.6%
viability, T/C [34]: 64.3%
viability, T/C [35]: 74.8%
viability, T/C [36]: 83.8%

IC50 (second compound 0.0316 µM): > 10 µM
IC50 (second compound 0.1 µM): > 10 µM
IC50 (second compound 0.316 µM): > 10 µM
IC50 (second compound 1 µM): 1.98 µM
IC50 (second compound 3.16 µM): 0.0342 µM
IC50 (second compound 10 µM): 0.0762 µM
SMILES: Cc1cccc(N(C)C(=O)C2C(O)CCN2c2nc(C)cc(C(F)(F)F)c2C#N)c1 (stereo unspecified) + Cc1cnc(CNC(=O)c2c(=O)c3ccc(N4CCCN(C)CC4)nc3n3c2sc2ccccc23)cn1
viability, T/C [1]: 87.7%
viability, T/C [2]: 70.2%
viability, T/C [3]: 62.9%
viability, T/C [4]: 75.9%
viability, T/C [5]: 70.7%
viability, T/C [6]: 81.6%
viability, T/C [7]: 67.2%
viability, T/C [8]: 72.2%
viability, T/C [9]: 76%
viability, T/C [10]: 62%
viability, T/C [11]: 50%
viability, T/C [12]: 78.8%
viability, T/C [13]: 82.5%
viability, T/C [14]: 79.8%
viability, T/C [15]: 59.8%
viability, T/C [16]: 52.8%
viability, T/C [17]: 65.5%
viability, T/C [18]: 49.3%
viability, T/C [19]: 71.6%
viability, T/C [20]: 62.1%
viability, T/C [21]: 52.4%
viability, T/C [22]: 56.1%
viability, T/C [23]: 50.5%
viability, T/C [24]: 44.2%
viability, T/C [25]: 48.9%
viability, T/C [26]: 50%
viability, T/C [27]: 45.5%
viability, T/C [28]: 36.2%
viability, T/C [29]: 46.1%
viability, T/C [30]: 40.9%
viability, T/C [31]: 50.6%
viability, T/C [32]: 54.8%
viability, T/C [33]: 44.4%
viability, T/C [34]: 41.2%
viability, T/C [35]: 43.2%
viability, T/C [36]: 43.4%

SMILES: C#Cc1c(F)ccc2cc(O)cc(-c3ncc4c(N5CC6CCC(C5)N6)nc(OCC56CCCN5CC(F)C6)nc4c3F)c12 (stereo unspecified) + CN(C)c1ccc(Nc2c3ccc(NC(=O)CCN4CCCC4)cc3nc3cc(NC(=O)CCN4CCCC4)ccc23)cc1
IC50 (second compound 0.0316 µM): > 10 µM
IC50 (second compound 0.1 µM): > 10 µM
IC50 (second compound 0.316 µM): > 10 µM
IC50 (second compound 1 µM): > 10 µM
IC50 (second compound 3.16 µM): > 10 µM
IC50 (second compound 10 µM): > 10 µM
viability, T/C [1]: 117%
viability, T/C [2]: 100%
viability, T/C [3]: 99.8%
viability, T/C [4]: 70.8%
viability, T/C [5]: 72%
viability, T/C [6]: 99.5%
viability, T/C [7]: 86.2%
viability, T/C [8]: 85.3%
viability, T/C [9]: 89.4%
viability, T/C [10]: 93.2%
viability, T/C [11]: 70.2%
viability, T/C [12]: 62.7%
viability, T/C [13]: 134%
viability, T/C [14]: 87.8%
viability, T/C [15]: 93.1%
viability, T/C [16]: 77.3%
viability, T/C [17]: 82.1%
viability, T/C [18]: 77.6%
viability, T/C [19]: 112%
viability, T/C [20]: 97.4%
viability, T/C [21]: 78.1%
viability, T/C [22]: 66.2%
viability, T/C [23]: 91.7%
viability, T/C [24]: 62%
viability, T/C [25]: 92%
viability, T/C [26]: 85.5%
viability, T/C [27]: 118%
viability, T/C [28]: 74.5%
viability, T/C [29]: 72.9%
viability, T/C [30]: 62.9%
viability, T/C [31]: 66.9%
viability, T/C [32]: 55%
viability, T/C [33]: 77.8%
viability, T/C [34]: 48.9%
viability, T/C [35]: 89.3%
viability, T/C [36]: 55.6%
